{"source": "ChEMBL document CHEMBL1201862", "about": "“PubChem BioAssay data set” (2004)", "key": {"cells [1]": {"experiment": "cells", "assay_type": "functional, cell-based"}, "cells [2]": {"experiment": "cells", "assay_type": "functional, cell-based", "remark": "listed apart in the source"}, "[3]": {"molecular_target": "T1, Ubiquitin-conjugating enzyme E2 N (Homo sapiens, UniProt P61088)", "T1 sequence (P61088 whole entry)": "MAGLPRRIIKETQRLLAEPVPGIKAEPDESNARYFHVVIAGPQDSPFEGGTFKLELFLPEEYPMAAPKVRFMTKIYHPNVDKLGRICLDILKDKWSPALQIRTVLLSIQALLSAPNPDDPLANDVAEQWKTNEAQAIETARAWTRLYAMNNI", "assay_type": "functional"}, "INS1": {"tested_on": "INS1", "experiment": "beta cell apoptosis inhibitors, cytokine rescue, dose response, luminescence, retest (AID 449756);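 note: cell death triggered by IL-1 beta plus TNF-alpha plus IFN-gamma mixture; protective hits raise ATP signal compared with cytokine alone wells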", "assay_type": "functional, cell-based", "conditions": "Rattus norvegicus"}, "[4]": {"experiment": "inhibitors of intracellular T. cruzi replication, confirmation, NIH3T3 host cells, beta-gal luminescence (AID 2044);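 note: luminescent beta-galactosidase reporter signal from transgenic T. cruzi replicating inside host cells; inhibitors lower the luminescence signal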", "assay_type": "functional, cell-based"}, "[5]": {"experiment": "cytotoxicity toward NIH3T3 fibroblasts, dose response, counter-screen, cell-based, ATP luminescence, mouse fibroblasts (AID 2010);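 note: cells exposed to compound for about 90 hours before reading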", "assay_type": "functional"}, "[6]": {"experiment": "C. albicans growth with fluconazole, confirmation, fluorescence, retest (AID 2467)", "assay_type": "functional, cell-based"}, "[7]": {"experiment": "NIH-3T3 fibroblast cytotoxicity, dose response, cytotoxicity control, cell-based, fluorescence, Alamar Blue, secondary assay (AID 2327);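 note: NIH-3T3 mouse fibroblasts cultured with fluconazole at 8 µg/mL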", "assay_type": "functional"}, "Nonstructural protein 1": {"molecular_target": "Nonstructural protein 1 (Influenza A virus, UniProt Q194T2)", "sequence (Q194T2 whole entry)": "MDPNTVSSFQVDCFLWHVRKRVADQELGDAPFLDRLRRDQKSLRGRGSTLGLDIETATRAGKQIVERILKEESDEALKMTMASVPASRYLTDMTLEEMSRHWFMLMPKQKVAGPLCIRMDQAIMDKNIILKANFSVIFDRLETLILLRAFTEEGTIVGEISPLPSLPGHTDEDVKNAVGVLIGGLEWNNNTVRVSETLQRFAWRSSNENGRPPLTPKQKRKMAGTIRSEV", "assay_type": "functional, Influenza A virus (A/California/07/2009(H1N1))"}, "[8]": {"molecular_target": "Heat shock protein HSP 90-alpha (Homo sapiens, UniProt P07900)", "assay_type": "functional, organism-based"}, "[9]": {"molecular_target": "DNA dC->dU-editing enzyme APOBEC-3G (Homo sapiens, UniProt Q9HC16)", "sequence (Q9HC16 whole entry)": "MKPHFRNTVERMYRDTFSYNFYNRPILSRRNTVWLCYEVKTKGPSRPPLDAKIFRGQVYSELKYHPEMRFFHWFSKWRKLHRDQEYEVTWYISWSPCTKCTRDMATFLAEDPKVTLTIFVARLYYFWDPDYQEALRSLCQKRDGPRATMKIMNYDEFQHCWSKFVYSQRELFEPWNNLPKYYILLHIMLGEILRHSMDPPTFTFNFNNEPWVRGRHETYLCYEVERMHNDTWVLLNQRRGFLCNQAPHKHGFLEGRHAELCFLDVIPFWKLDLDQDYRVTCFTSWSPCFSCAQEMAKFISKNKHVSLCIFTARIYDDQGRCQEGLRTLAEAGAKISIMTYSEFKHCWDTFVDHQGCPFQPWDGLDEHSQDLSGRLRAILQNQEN", "experiment": "Dose Response confirmation of small molecule APOBEC3G DNA Deaminase Inhibitors via a fluorescence-based single-stranded DNA deaminase assay. [Related pubchem assays (depositor defined):AID493012, AID493028]", "assay_type": "functional"}, "[10]": {"experiment": "ZM109 Env clade C HIV-1 fusion inhibitors, dose response, HeLa effector, CEM target cells, luciferase, cherry-pick (AID 652058)", "assay_type": "functional, cell-based"}, "[11]": {"experiment": "P. falciparum Dd2 growth inhibitors, dose response, SYBR Green, cherry-picked samples (AID 1159567)", "assay_type": "functional, cell-based"}, "[12]": {"molecular_target": "T2, Zinc finger protein mex-5 (Caenorhabditis elegans, UniProt Q9XUB2)", "T2 sequence (Q9XUB2 whole entry)": "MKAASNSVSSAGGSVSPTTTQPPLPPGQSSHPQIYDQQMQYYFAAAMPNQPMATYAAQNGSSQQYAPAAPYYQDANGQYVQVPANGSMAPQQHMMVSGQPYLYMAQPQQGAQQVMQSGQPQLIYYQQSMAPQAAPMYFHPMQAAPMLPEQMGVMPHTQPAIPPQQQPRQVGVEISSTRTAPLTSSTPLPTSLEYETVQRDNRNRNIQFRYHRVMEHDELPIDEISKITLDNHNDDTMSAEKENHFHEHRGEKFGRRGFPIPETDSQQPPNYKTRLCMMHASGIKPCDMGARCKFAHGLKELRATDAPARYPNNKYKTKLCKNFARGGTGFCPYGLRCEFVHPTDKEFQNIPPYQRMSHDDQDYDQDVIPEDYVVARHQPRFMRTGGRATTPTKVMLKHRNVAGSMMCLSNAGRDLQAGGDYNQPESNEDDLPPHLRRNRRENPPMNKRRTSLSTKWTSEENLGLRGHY", "experiment": "MEX-5/TCR-2 RNA interaction inhibitors, dose response, biochemical, C. elegans, fluorescence polarization (AID 1960)"}, "[13]": {"molecular_target": "T3, RNA-binding protein pos-1 (Caenorhabditis elegans, UniProt G5EF15)", "T3 sequence (G5EF15 whole entry)": "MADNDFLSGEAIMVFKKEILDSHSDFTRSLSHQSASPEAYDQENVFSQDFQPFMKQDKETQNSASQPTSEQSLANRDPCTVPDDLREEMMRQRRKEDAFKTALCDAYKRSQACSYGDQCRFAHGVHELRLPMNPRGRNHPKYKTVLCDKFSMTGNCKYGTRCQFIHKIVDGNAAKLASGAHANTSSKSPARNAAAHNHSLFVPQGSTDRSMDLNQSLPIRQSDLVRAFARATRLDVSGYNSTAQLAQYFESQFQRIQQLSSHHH", "experiment": "inhibitors of POS-1/mex-3 RNA binding, dose response, biochemical, fluorescence polarization (AID 1964);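 note: purified POS-1 fused to maltose binding protein made in E. coli; potency of compounds blocking POS-1 binding to fluorescent RNA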"}, "Genome polyprotein": {"molecular_target": "Genome polyprotein (dengue virus type 2, UniProt P29990)", "sequence (P29990 2492-3391 limits assumed)": "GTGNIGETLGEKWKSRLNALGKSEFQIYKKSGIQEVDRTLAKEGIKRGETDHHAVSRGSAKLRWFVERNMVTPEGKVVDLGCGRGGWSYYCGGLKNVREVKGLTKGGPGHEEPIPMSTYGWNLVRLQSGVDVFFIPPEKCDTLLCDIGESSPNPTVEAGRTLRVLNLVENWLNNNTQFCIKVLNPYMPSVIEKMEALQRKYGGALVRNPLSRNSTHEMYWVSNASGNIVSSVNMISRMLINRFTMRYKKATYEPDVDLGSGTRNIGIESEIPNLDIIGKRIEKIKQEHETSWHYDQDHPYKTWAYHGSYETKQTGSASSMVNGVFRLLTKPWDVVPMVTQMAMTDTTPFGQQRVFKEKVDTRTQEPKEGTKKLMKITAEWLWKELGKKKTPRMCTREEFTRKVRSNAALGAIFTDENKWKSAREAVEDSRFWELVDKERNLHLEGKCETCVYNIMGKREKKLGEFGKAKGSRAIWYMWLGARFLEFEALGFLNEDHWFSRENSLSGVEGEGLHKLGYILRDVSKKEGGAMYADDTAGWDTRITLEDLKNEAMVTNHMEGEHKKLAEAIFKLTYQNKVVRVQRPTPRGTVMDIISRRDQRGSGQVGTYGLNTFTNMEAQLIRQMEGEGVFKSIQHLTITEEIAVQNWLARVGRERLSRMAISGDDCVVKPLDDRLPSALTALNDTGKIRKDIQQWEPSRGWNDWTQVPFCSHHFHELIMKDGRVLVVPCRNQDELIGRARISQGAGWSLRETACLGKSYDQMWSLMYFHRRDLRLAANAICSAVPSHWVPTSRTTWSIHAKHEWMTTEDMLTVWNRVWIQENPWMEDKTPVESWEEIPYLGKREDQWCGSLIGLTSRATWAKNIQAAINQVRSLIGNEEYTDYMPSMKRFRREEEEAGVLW", "experiment": "Dengue-2 NS5 methyltransferase inhibitors, primary screen, biochemical, confirmation dose response (AID 588689)", "assay_type": "functional"}, "[14]": {"tested_on": "Streptococcus sp. 'group A'", "experiment": "growth inhibition of control SK(-) GAS strain, dose response, counter-screen for streptokinase expression inhibitor project, luminescence, kanamycin, BacTiterGlo, confirmation (AID 1900)", "assay_type": "functional, organism-based"}, "Streptokinase A": {"molecular_target": "T4, Streptokinase A (Streptococcus pyogenes serotype M1, UniProt P10520)", "T4 sequence (P10520 whole entry)": "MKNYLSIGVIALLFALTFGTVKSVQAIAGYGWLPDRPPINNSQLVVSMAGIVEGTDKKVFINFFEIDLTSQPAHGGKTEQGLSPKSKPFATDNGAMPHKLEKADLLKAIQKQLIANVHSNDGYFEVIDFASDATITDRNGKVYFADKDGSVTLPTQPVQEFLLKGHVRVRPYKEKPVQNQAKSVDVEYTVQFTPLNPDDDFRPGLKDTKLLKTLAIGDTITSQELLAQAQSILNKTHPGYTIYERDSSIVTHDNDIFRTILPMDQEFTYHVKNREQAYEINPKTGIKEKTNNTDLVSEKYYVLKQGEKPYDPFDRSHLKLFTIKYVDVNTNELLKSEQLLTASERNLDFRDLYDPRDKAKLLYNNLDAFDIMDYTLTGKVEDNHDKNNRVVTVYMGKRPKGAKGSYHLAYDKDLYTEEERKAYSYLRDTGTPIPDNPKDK", "experiment": "S. pyogenes streptokinase expression inhibitors, potency, dose response, plasminogen activation absorbance, OD405 (AID 1914);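 note: secreted streptokinase activity via plasminogen activation per viability signal from cell pellet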", "assay_type": "functional, Streptococcus pyogenes M1 GAS"}, "Streptococcus": {"tested_on": "Streptococcus", "experiment": "Group A Streptococcus viability loss, dose response, counter-screen for streptokinase expression inhibitor project, luminescence, BacTiterGlo (AID 1915);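 note: potency for reduction of bacterial viability or growth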", "assay_type": "functional, organism-based"}}, "note": "Activity calls are given as the source filed them. Cut-off read from the data, not from the text of the source, for most assays here: actives have a measured EC50 and inactives only a lower limit.", "data": [{"smiles": "CCCCN=C(S)Nc1ccc2c[nH]nc2c1", "values": [{"measurement": "EC50", "setting": "cells [1]", "value": "> 350 µM (not active)"}, {"measurement": "EC50", "setting": "cells [2]", "value": "> 350 µM (not active)"}]}, {"smiles": "NC(=O)c1nsc(C(=O)N(c2cccc(F)c2)C(C(=O)NCC2CCCO2)c2c[nH]c3ccccc23)c1N", "note": "(stereo not drawn)", "values": [{"measurement": "IC50", "setting": "[3]", "value": "> 20 µM (inactive)"}]}, {"smiles": "C#CCOCCOCCOCCNc1nc(N2CCN(C(=O)[C@H](CO)n3cc([C@@H](N)C(C)C)nn3)CC2)nc(N2CCN(C(=O)[C@H](CCC(=O)O)n3cc([C@@H](N)CCCCN)nn3)CC2)n1", "values": [{"measurement": "IC50", "setting": "[3]", "value": "> 20 µM (inactive)"}]}, {"smiles": "C/C(=N\\NC(=O)c1cc(-c2cccnc2)nc2ccccc12)c1ccccc1O", "values": [{"measurement": "AC50", "setting": "INS1", "value": "0.971 µM (active)"}, {"measurement": "EC50", "setting": "cells [1]", "value": "> 350 µM (not active)"}, {"measurement": "EC50", "setting": "cells [2]", "value": "16.8 µM (active)"}, {"measurement": "EC50", "setting": "[4]", "value": "0.834 µM (active)"}, {"measurement": "EC50", "setting": "[5]", "value": "2.18 µM (active)"}]}, {"smiles": "CC(C)Cn1c(/C=N/Nc2nc3ccccc3[nH]2)nc2ccccc21", "values": [{"measurement": "EC50", "setting": "cells [1]", "value": "> 350 µM (not active)"}, {"measurement": "EC50", "setting": "cells [2]", "value": "52.5 µM (active)"}]}, {"smiles": "OCc1ccnc2c(O)cccc12", "values": [{"measurement": "EC50", "setting": "[6]", "value": "> 38 µM (not active)"}, {"measurement": "EC50", "setting": "[4]", "value": "3.36 µM (active)"}, {"measurement": "EC50", "setting": "[5]", "value": "> 30 µM (not active)"}, {"measurement": "EC50", "setting": "[7]", "value": "79.8 µM (active)"}, {"measurement": "IC50", "setting": "Nonstructural protein 1", "value": "10.2 µM (active)"}]}, {"smiles": "Cc1ccc(N2CCN(C3=NC(=O)/C(=C\\c4c[nH]nc4-c4ccccc4)S3)CC2)cc1", "values": [{"measurement": "EC50", "setting": "[6]", "value": "8.34 µM (active)"}, {"measurement": "EC50", "setting": "[7]", "value": "> 150 µM (inactive)"}]}, {"smiles": "CC(=NNC(=S)N1CC2CCC(CC2)C1)c1cnccn1", "values": [{"measurement": "AC50", "setting": "[8]", "value": "4.43 µM (active)"}, {"measurement": "IC50", "setting": "Nonstructural protein 1", "value": "3.16 µM (active)"}]}, {"smiles": "COc1ccc(CC(=S)N2CCOCC2)cc1", "values": [{"measurement": "IC50", "setting": "[9]", "value": "46.1 µM (active)"}]}, {"smiles": "O=C(N/N=C/c1cccnc1)c1ccc(NC(=O)c2ccc(Cl)cc2)cc1", "values": [{"measurement": "EC50", "setting": "cells [1]", "value": "> 350 µM (not active)"}, {"measurement": "EC50", "setting": "cells [2]", "value": "> 350 µM (not active)"}]}, {"smiles": "Cc1cc(NC(=O)CSc2nc3c(c(=O)n2-c2ccc(Cl)cc2)SCC3)no1", "values": [{"measurement": "EC50", "setting": "cells [1]", "value": "> 350 µM (not active)"}, {"measurement": "EC50", "setting": "cells [2]", "value": "> 350 µM (not active)"}]}, {"smiles": "O=S1(=O)CC(O)C(N=Nc2c(O)n(Cc3ccccc3)c3ccccc23)C1", "note": "(stereo not drawn)", "values": [{"measurement": "IC50", "setting": "[3]", "value": "> 20 µM (inactive)"}]}, {"smiles": "O=C(C[C@@H]1C=C[C@@H](NC(=O)c2ccccc2)[C@H](CO)O1)NCc1ccc(Oc2ccccc2)cc1", "values": [{"measurement": "AC50", "setting": "[10]", "value": "38.2 µM (active)"}]}, {"smiles": "COc1ccc2c(c1)OC[C@H]1[C@H]2N2C(=O)c3cc(Br)ccc3NC(=O)[C@@]2(C)[C@H]1c1ccccc1", "values": [{"measurement": "AC50", "setting": "[8]", "value": "0.837 µM (active)"}]}, {"smiles": "O=C(C1CCCC1)N1CC[C@@H]2[C@H]1c1cc(C3=CCCCC3)ccc1N[C@@H]2CO", "values": [{"measurement": "AC50", "setting": "[11]", "value": "2.76 µM (active)"}]}, {"smiles": "Cc1noc(NC(=O)c2ccc(Cl)c(Cl)c2)c1Cl", "values": [{"measurement": "EC50", "setting": "[6]", "value": "0.591 µM (active)"}, {"measurement": "EC50", "setting": "[7]", "value": "> 150 µM (inactive)"}]}, {"smiles": "CCCCC(=O)Nc1ccc(NC(=O)CC)cc1OC", "values": [{"measurement": "EC50", "setting": "cells [1]", "value": "> 350 µM (not active)"}, {"measurement": "EC50", "setting": "cells [2]", "value": "> 350 µM (not active)"}]}, {"smiles": "Cc1ccc(Sc2ncccc2C(=O)NCc2cc([N+](=O)[O-])ccc2O)c(C)c1", "values": [{"measurement": "EC50", "setting": "[6]", "value": "1.73 µM (active)"}, {"measurement": "EC50", "setting": "[7]", "value": "> 150 µM (inactive)"}]}, {"smiles": "CC1(OC(=O)c2ccco2)C(=O)C=C2C=C(C3CC3)OC=C2C1=O", "note": "(stereo not drawn)", "values": [{"measurement": "EC50", "setting": "[12]", "value": "18.3 µM (active)"}, {"measurement": "EC50", "setting": "[13]", "value": "20.2 µM (active)"}, {"measurement": "IC50", "setting": "Genome polyprotein", "value": "> 100 µM (active)"}]}, {"smiles": "O=C(O)c1cccc2c1Cc1cc(Cl)ccc1-2", "values": [{"measurement": "AC50", "setting": "[8]", "value": "0.723 µM (active)"}]}, {"smiles": "CC(=O)c1ccc(NC(=O)Nc2cccc3ccccc23)cc1", "values": [{"measurement": "EC50", "setting": "[6]", "value": "> 38 µM (not active)"}, {"measurement": "EC50", "setting": "[7]", "value": "19.1 µM (inconclusive)"}]}, {"smiles": "CCCN1C[C@@H](C)[C@H](OC)CN(C)C(=O)c2ccc(NC(=O)c3cccc(F)c3)cc2OC[C@H]1C", "values": [{"measurement": "AC50", "setting": "[11]", "value": "5.34 µM (active)"}]}, {"smiles": "CCC[C@@H](CN1CCC[C@H]1CN1C(N)=NC[C@@H]1Cc1ccccc1)N1C[C@@H]([C@H](C)CC)N(CCc2ccc(Cl)c(Cl)c2)C1=N", "values": [{"measurement": "IC50", "setting": "[3]", "value": "> 20 µM (inactive)"}]}, {"smiles": "O=C(NNC(=S)NC(=O)c1ccccc1)c1ccc([N+](=O)[O-])cc1", "values": [{"measurement": "EC50", "setting": "[14]", "value": "4.22 µM (active)"}, {"measurement": "EC50", "setting": "[6]", "value": "1.46 µM (active)"}, {"measurement": "EC50", "setting": "[7]", "value": "> 160 µM (inactive)"}, {"measurement": "EC50", "setting": "Streptokinase A", "value": "> 150 µM (not active)"}, {"measurement": "EC50", "setting": "Streptococcus", "value": "15.5 µM (active)"}]}]}
